Experimental data as given in patent publication US8293749B2, “Injectable meclizine formulations and methods” (Genebiology, Inc., priority 2007, dated 2012).
Values after ≈ are worked out from the molar mass of the structure shown.

How the values were obtained:
nausea and vomiting = settings: anti-emetic; cited from earlier work
[1] = Merck Index, 12th Ed, 984; cited from earlier work
[2] = Aqueous solubility of meclizine versus pH, 0.1 M citric acid buffer and ddH2O, HPLC; assay type: physicochemical; settings: for solubility at 24 h: thermodynamic from solid
Procedure: Citric acid (0.1M) buffer solutions are prepared with pH's of 1.0; 2.0; 3.0; 4.0, and 5.0 in ddH2O (de-oxygenated water by purging with nitrogen gas). 2 ml of each buffer are placed in 4 ml vials and 2 ml ddH2O is placed in a 4 ml vial. 20 mg meclizine HCl is added to each vial. The vials are sealed and are shaken on an orbital shaker for 24 hours at 200 rpm. Following the shaking, the vial contents are filtered through 0.45 μm filters to remove any excess solute. The remaining solution is assayed by HPLC for meclizine content.

[3] = Solubility of meclizine with cyclodextrins in ddH2O, HPLC; assay type: physicochemical; settings: alpha-CD 0-100 mg/ml, gamma-CD, HPBCD and SBECD at 200 mg/ml versus no CD
Procedure: FIG. 1A depicts solubility data of meclizine complexed with non-chemically modified cyclodextrins (α-CD at 0-100 mg/ml, γ-CD at 200 mg/ml), chemically modified cyclodextrins (HPBCD and SBECD) at 200 mg/ml, and with no CD complexation in ddH2O. Solutions were prepared by adding excess meclizine to ddH2O samples with varying quantities of the different cyclodextrins. These samples were shaken for 24 hours at 200 rpm. Following the shaking, the vial contents were filtered through 0.45 μm filters to remove any excess solute. The remaining solution was assayed by HPLC for meclizine content.

physchem [4] = settings: 25 °C, pH 3, aqueous buffer, thermodynamic from solid, aqueous solubility of meclizine at pH 3.0
Procedure: (§1) Five HPBCD and five SBECD solutions in 0.5 M citric acid buffer (pH of 3.0) are prepared, with HPBCD and SBECD concentrations of 50; 100; 150 and 200 mg/ml. 3 ml of the various buffered HPBCD and SBECD solutions are placed in 4 ml vials. 75-100 mg meclizine is added to each vial, such that excess meclizine is provided. The vials are sealed and are shaken on an orbital shaker for 24 hours at 200 rpm and 25° C. Following the shaking, the vials are filtered through 0.45 μm filters to remove any excess solute. The remaining solution is assayed by HPLC for meclizine content.

[5] = pH-dependent solubility of meclizine cyclodextrin complexes in 0.5 M citric buffer; assay type: physicochemical; settings: HPBCD 200 mg/ml, above pH of about 5, compared with non-chemically modified CDs
physchem [6] = settings: 25 °C, pH 4, aqueous buffer, thermodynamic from solid, aqueous solubility of meclizine at pH 4.0
Procedure: as §1, with “(pH of 4.0) are prepared,” for “(pH of 3.0) are prepared,”, “concentrations of 0; 50; 100;” for “concentrations of 50; 100;”, “ml vials. 50-100 mg meclizine” for “ml vials. 75-100 mg meclizine”, “meclizine is available. The vials” for “meclizine is provided. The vials”

Row | aqueous solubility of meclizine ([2]; 0.1 M citric acid buffer, about pH 5.0, shaken 24 hours) | solubility at 24 h ([2]; aqueous buffer, 0.1 M citric acid buffer, pH 1.0, shaken 24 hours, read-out: aqueous solubility of meclizine) | solubility at 24 h ([2]; ddH2O (de-oxygenated water), pH 2, water, ddH2O, measured pH of about 2.0, shaken 24 hours, read-out: aqueous solubility of meclizine in ddH2O) | solubility of meclizine with cyclodextrins [3] | solubility at 24 h (physchem [4]) | solubility of meclizine in HPBCD at higher pH [5] | solubility at 24 h (physchem [6]) | Structure (SMILES) | duration of action (nausea and vomiting) | water solubility [1]
1 | – | – | – | – | – | – | – | CN1CCN(C(c2ccccc2)c2ccccc2)CC1 [cyclizine] | 1 to 2 h | –
2 | – | – | – | – | – | – | – | Cc1cccc(CN2CCN(C(c3ccccc3)c3ccc(Cl)cc3)CC2)c1.Cl.Cl (stereo not shown) [meclizine HCl, 1-(4-chlorobenzhydryl)-4-(3-methylbenzyl)-piperazine dihydrochloride] | – | 0.1 g/100 ml
3 | below the limit of detection | ~1500 µg/mL (≈ 3840 µM) | ~3800 µg/mL (≈ 9720 µM) | improved solubility | ~300 µg/mL (≈ 767 µM) | improved solubility | ~10 µg/mL (≈ 25.6 µM) | Cc1cccc(CN2CCN(C(c3ccccc3)c3ccc(Cl)cc3)CC2)c1 (stereo not shown) [meclizine, 1-(4-chlorobenzhydryl)-4-(3-methylbenzyl)-piperazine] | up to 24 hours | –
